Laboratory results reported in US20250262279A1, “DOSE REGIMEN FOR LONG-ACTING GLP1/GLUCAGON RECEPTOR AGONISTS” (Boehringer Ingelheim International GmbH, priority 2021, published 2025).
Where two headings read alike, the source gives them in different places.

How the values were obtained:
[1] = Example 1: plasma pharmacokinetics; type: in vivo; details: human, sc; for Cmax: read-out: Cmax (gMean)
[2] = Example 3: safety (AEs, laboratory, ECG, vital signs, NASH scores); type: in vivo, human
Procedure: • Semaglutide • Dose: 0.25, 0.25, 0.25, 0.25, 0.5, 0.5, 0.5, 0.5, 1.0 mg (weeks 9−16) once weekly • Mode of administration: Solution for injection
Safety endpoints included Columbia-Suicide Severity Rating Scale (C-SSRS) and various electrocardiograms (ECG) assessments. Safety was assessed based on adverse events (AEs), adverse event of special interest (AESIs), clinical laboratory assessments, vital signs, and physical examination. AESIs were pre-specified in the protocol as pancreatitis and hepatic injury.
Analyses of safety were descriptive.

[3] = first-in-man Phase I single-rising-dose study, adverse events; type: in vivo, human
Procedure: Compound I was recently studied in a first-in-man Phase I single-rising-dose study. In this study, a dose of 0.3 mg led to ‘mild loss of appetite’ in 33% of healthy subjects. This specific AE increased to 50% in the 0.5 mg dose group. Dose escalation to 1.2 mg was associated with 83% of the subjects experiencing moderate to severe nausea for 1 to 6 days and mild to severe vomiting.

SMILES: CC[C@H](C)[C@H](NC(=O)[C@H](Cc1ccccc1)NC(=O)[C@H](CC(=O)O)NC(=O)[C@H](CCCCN)NC(=O)[C@H](C)NC(=O)[C@H](C)NC(=O)[C@H](CCCNC(=N)N)NC(=O)[C@H](CCC(=O)O)NC(=O)[C@H](CC(=O)O)NC(=O)[C@H](CC(C)C)NC(=O)[C@H](Cc1ccc(O)cc1)NC(=O)[C@H](CCCCN)NC(=O)[C@H](CO)NC(=O)[C@H](Cc1ccc(O)cc1)NC(=O)[C@H](CC(=O)O)NC(=O)[C@H](CO)NC(=O)[C@@H](NC(=O)[C@H](Cc1ccccc1)NC(=O)[C@@H](NC(=O)CNC(=O)[C@H](CCC(N)=O)NC(=O)C1(NC(=O)[C@@H](N)Cc2c[nH]cn2)CCC1)[C@@H](C)O)[C@@H](C)O)C(=O)N[C@@H](CCCCNC(=O)CNC(=O)CNC(=O)[C@H](CO)NC(=O)CNC(=O)[C@H](CO)NC(=O)CNC(=O)CC[C@H](NC(=O)CCCCCCCCCCCCCCCCC(=O)O)C(=O)O)C(=O)N[C@@H](Cc1c[nH]c2ccccc12)C(=O)N[C@@H](CC(C)C)C(=O)N[C@@H](CCC(=O)O)C(=O)N[C@@H](CO)C(=O)N[C@@H](C)C(N)=O [Compound I]
- Cmax ([1]; 1.2 mg, Ex.1 weekly scheme 4, wk 5, 1.2 mg sc): 36 nM
- AUC(0-t) ([1]; 1.2 mg, Ex.1 weekly scheme 4, wk 6, 1.2 mg sc, read-out: AUC0-168 (gMean)): 4.7 µM·h
- Cmax ([1]; 1.2 mg, Ex.1 weekly scheme 4, wk 6, 1.2 mg sc): 41.9 nM
- AUC(0-t) ([1]; 1.2 mg, Ex.1 weekly scheme 4, wk 7, 1.2 mg sc, read-out: AUC0-168 (gMean)): 5.19 µM·h
- Cmax ([1]; 1.2 mg, Ex.1 weekly scheme 4, wk 7, 1.2 mg sc): 49 nM
- AUC(0-t) ([1]; 1.2 mg, Ex.1 weekly scheme 5, wk 3, 1.2 mg sc, read-out: AUC0-168 (gMean)): 3.79 µM·h
- Cmax ([1]; 1.2 mg, Ex.1 weekly scheme 5, wk 3, 1.2 mg sc): 31.5 nM
- AUC(0-t) ([1]; 1.5 mg, Ex.1 twice weekly scheme, wk 9, 1.5 mg sc, read-out: AUC0-72 (gMean)): 5 µM·h
- Cmax ([1]; 1.5 mg, Ex.1 twice weekly scheme, wk 9, 1.5 mg sc): 78.3 nM
- AUC(0-t) ([1]; 1.5 mg, Ex.1 weekly scheme 1, wk 5, 1.5 mg sc, read-out: AUC0-168 (gMean)): 4.49 µM·h
- Cmax ([1]; 1.5 mg, Ex.1 weekly scheme 1, wk 5, 1.5 mg sc): 37.8 nM
- AUC(0-t) ([1]; 1.6 mg, Ex.1 weekly scheme 2, wk 4, 1.6 mg sc, read-out: AUC0-168 (gMean)): 5.13 µM·h
- Cmax ([1]; 1.6 mg, Ex.1 weekly scheme 2, wk 4, 1.6 mg sc): 44.3 nM
- AUC(0-t) ([1]; 1.8 mg, Ex.1 twice weekly scheme, wk 11, 1.8 mg sc, read-out: AUC0-72 (gMean)): 5.69 µM·h
- Cmax ([1]; 1.8 mg, Ex.1 twice weekly scheme, wk 11, 1.8 mg sc): 93.6 nM
- AUC(0-t) ([1]; 1.8 mg, Ex.1 weekly scheme 1, wk 6, 1.8 mg sc, read-out: AUC0-168 (gMean)): 5.53 µM·h
- Cmax ([1]; 1.8 mg, Ex.1 weekly scheme 1, wk 6, 1.8 mg sc): 45.5 nM
- AUC(0-t) ([1]; 1.8 mg, Ex.1 weekly scheme 3, wk 4, 1.8 mg sc, read-out: AUC0-168 (gMean)): 5.2 µM·h
- Cmax ([1]; 1.8 mg, Ex.1 weekly scheme 3, wk 4, 1.8 mg sc): 46.5 nM
- AUC(0-t) ([1]; 1.8 mg, Ex.1 weekly scheme 4, wk 11, 1.8 mg sc, read-out: AUC0-168 (gMean)): 8.16 µM·h
- Cmax ([1]; 1.8 mg, Ex.1 weekly scheme 4, wk 11, 1.8 mg sc): 69.9 nM
- AUC(0-t) ([1]; 1.8 mg, Ex.1 weekly scheme 4, wk 19, 1.8 mg sc, read-out: AUC0-168 (gMean)): 6.66 µM·h
- Cmax ([1]; 1.8 mg, Ex.1 weekly scheme 4, wk 19, 1.8 mg sc): 60.2 nM
- AUC(0-t) ([1]; 1.8 mg, Ex.1 weekly scheme 5, wk 5, 1.8 mg sc, read-out: AUC0-168 (gMean)): 6.08 µM·h
- Cmax ([1]; 1.8 mg, Ex.1 weekly scheme 5, wk 5, 1.8 mg sc): 57.9 nM
- AUC(0-t) ([1]; 1.8 mg, Ex.1 weekly scheme 5, wk 6, 1.8 mg sc, read-out: AUC0-168 (gMean)): 6.77 µM·h
- Cmax ([1]; 1.8 mg, Ex.1 weekly scheme 5, wk 6, 1.8 mg sc): 63.3 nM
- AUC(0-t) ([1]; 2 mg, Ex.1 weekly scheme 2, wk 5, 2.0 mg sc, read-out: AUC0-168 (gMean)): 6.55 µM·h
- Cmax ([1]; 2 mg, Ex.1 weekly scheme 2, wk 5, 2.0 mg sc): 57.7 nM
- AUC(0-t) ([1]; 2.1 mg, Ex.1 twice weekly scheme, wk 13, 2.1 mg sc, read-out: AUC0-72 (gMean)): 6.7 µM·h
- Cmax ([1]; 2.1 mg, Ex.1 twice weekly scheme, wk 13, 2.1 mg sc): 108 nM
- AUC(0-t) ([1]; 2.4 mg, Ex.1 twice weekly scheme, wk 15, 2.4 mg sc, read-out: AUC0-72 (gMean)): 7.62 µM·h
- Cmax ([1]; 2.4 mg, Ex.1 twice weekly scheme, wk 15, 2.4 mg sc): 132 nM
- AUC(0-t) ([1]; 2.4 mg, Ex.1 twice weekly scheme, wk 16, 2.4 mg sc, read-out: AUC0-72 (gMean)): 8.55 µM·h
- Cmax ([1]; 2.4 mg, Ex.1 twice weekly scheme, wk 16, 2.4 mg sc): 142 nM
- AUC(0-t) ([1]; 2.4 mg, Ex.1 weekly scheme 2, wk 6, 2.4 mg sc, read-out: AUC0-168 (gMean)): 8.19 µM·h
- Cmax ([1]; 2.4 mg, Ex.1 weekly scheme 2, wk 6, 2.4 mg sc): 70.6 nM
- AUC(0-t) ([1]; 2.4 mg, Ex.1 weekly scheme 3, wk 5, 2.4 mg sc, read-out: AUC0-168 (gMean)): 7.19 µM·h
- Cmax ([1]; 2.4 mg, Ex.1 weekly scheme 3, wk 5, 2.4 mg sc): 63 nM
- AUC(0-t) ([1]; 2.4 mg, Ex.1 weekly scheme 4, wk 13, 2.4 mg sc, read-out: AUC0-168 (gMean)): 10.3 µM·h
- Cmax ([1]; 2.4 mg, Ex.1 weekly scheme 4, wk 13, 2.4 mg sc): 88.3 nM
- AUC(0-t) ([1]; 2.4 mg, Ex.1 weekly scheme 4, wk 15, 2.4 mg sc, read-out: AUC0-168 (gMean)): 10.9 µM·h
- Cmax ([1]; 2.4 mg, Ex.1 weekly scheme 4, wk 15, 2.4 mg sc): 87.1 nM
- AUC(0-t) ([1]; 2.4 mg, Ex.1 weekly scheme 4, wk 16, 2.4 mg sc, read-out: AUC0-168 (gMean)): 11.5 µM·h
- Cmax ([1]; 2.4 mg, Ex.1 weekly scheme 4, wk 16, 2.4 mg sc): 97.3 nM
- AUC(0-t) ([1]; 2.4 mg, Ex.1 weekly scheme 5, wk 7, 2.4 mg sc, read-out: AUC0-168 (gMean)): 9.08 µM·h
- Cmax ([1]; 2.4 mg, Ex.1 weekly scheme 5, wk 7, 2.4 mg sc): 77.8 nM
- AUC(0-t) ([1]; 3 mg, Ex.1 weekly scheme 3, wk 6, 3.0 mg sc, read-out: AUC0-168 (gMean)): 10.4 µM·h
- Cmax ([1]; 3 mg, Ex.1 weekly scheme 3, wk 6, 3.0 mg sc): 88.7 nM
- AUC(0-t) ([1]; 3 mg, Ex.1 weekly scheme 5, wk 9, 3.0 mg sc, read-out: AUC0-168 (gMean)): 11.3 µM·h
- Cmax ([1]; 3 mg, Ex.1 weekly scheme 5, wk 9, 3.0 mg sc): 102 nM
- AUC(0-t) ([1]; 3.6 mg, Ex.1 weekly scheme 5, wk 11, 3.6 mg sc, read-out: AUC0-168 (gMean)): 14.2 µM·h
- Cmax ([1]; 3.6 mg, Ex.1 weekly scheme 5, wk 11, 3.6 mg sc): 129 nM
- AUC(0-t) ([1]; 4.2 mg, Ex.1 weekly scheme 5, wk 13, 4.2 mg sc, read-out: AUC0-168 (gMean)): 15.9 µM·h
- Cmax ([1]; 4.2 mg, Ex.1 weekly scheme 5, wk 13, 4.2 mg sc): 134 nM
- AUC(0-t) ([1]; 4.8 mg, Ex.1 weekly scheme 5, wk 15, 4.8 mg sc, read-out: AUC0-168 (gMean)): 18.7 µM·h
- Cmax ([1]; 4.8 mg, Ex.1 weekly scheme 5, wk 15, 4.8 mg sc): 161 nM
- AUC(0-t) ([1]; 4.8 mg, Ex.1 weekly scheme 5, wk 16, 4.8 mg sc, read-out: AUC0-168 (gMean)): 19.7 µM·h
- Cmax ([1]; 4.8 mg, Ex.1 weekly scheme 5, wk 16, 4.8 mg sc): 193 nM
- deaths ([2]; Ex.3, whole trial): no deaths
- AEs of special interest, percentage of patients ([2]; in vivo): (0.3) interest %
- cases of pancreatitis ([2]; in vivo): no cases of pancreatitis
- healthy subjects with mild loss of appetite ([3]; single dose 0.3 mg): 33%
- healthy subjects with mild loss of appetite ([3]; single dose 0.5 mg): 50%
- subjects with moderate to severe nausea for 1 to 6 days and mild to severe vomiting ([3]; single dose 1.2 mg): 83%
